This passage reports IC50 results from paper PMC6900016, “Synthesis of Indomorphan Pseudo‐Natural Product Inhibitors of Glucose Transporters GLUT‐1 and ‐3” (Angewandte Chemie (International Ed. in English), 2019).

By IC50 is commonly meant the concentration at which inhibition is half-maximal.

This experiment relates to HCT116. The experiment in a line: cells. The arrangement: 2-deoxyglucose uptake inhibition, semi-automated resazurin/diaphorase fluorescence read-out of 2DG6P. To be noted: Homo sapiens, HCT-116, 0.5 h; 2DG uptake. The protocol:
Resazurin-based 2DG uptake assay (semi-automated high throughput) All buffers, reagents and steps were identical with those described for the manual screening Washing and [compound left out] addition steps were done using an automated cell washer or a multidrop device, respectively. Screening was performed in a 384-well plates. 15,000 HCT116 cells/well seeded into 384-well black-walled, clear bottomed plates (CellBIND, Corning) and incubated overnight. Compounds were added at 30 µM (final concentration for screening or serial dilutions staring from 30 µM for IC50 determinations) from DMSO stocks using the acoustic nanoliter dispenser ECHO 520. Fluorescence intensity was read from the bottom with a SpectraMax Paradigm Multi-Mode Microplate Reader (Molecular devices) using SUPPORTING INFORMATION 259 control (which was set to 100 %) and cells without 2DG (set to 0 %) using Graph Pad Prism 5 or 6 software and IC50 values were determined using a four-parameter fit. The observed difference in the obtained IC50 values for Glupin in the automated screening vs. manually performed assay is most likely attributed to the minituarization that is required for high-troughput screening and usually requires different plate format (384 vs. 96-well plates) and different cell number. In this case, the automated assay was performed in 384-well plates (vs. 96-well plates for the manual assay) with 15,000 cells per well (vs. 40,000 cells per well in the 96-well plates). For kinetic measurements, 15,000 cells were seeded into black CellBIND 384-well plates (Corning) and allowed to attach overnight. Then, the plates were washed 3X with KRB buffer containing 0.1%BSA and treated with different concentrations of 2DG (0-60mM) and Glupin (0-1µM) for 30s to 30min. The uptake was determined using the resazurin/diaphorase system as described above. 2DG uptake was stopped by aspirating the 2DG solution followed by quick wash with ice-cold KRB buffer (0.1 % BSA). Km and Vmax were determined by fitting the data according to Michaelis-Menten using non-linear fitting. The glucose uptake assay monitored the inhibition of 2‐deoxyglucose (2DG) uptake as described by Yamamoto et al.25 Briefly, 2DG uptake is determined by quantification of the 2DG‐6‐phosphate (2DG6P) that accumulates inside the cells by using the diaphorase‐resazurin/‐resorufin system (see Figure S7 a).
In the case of `CCOC(=O)Cn1c2c(c3ccccc31)CC1CC2C(OC)CN1C(=O)c1cccnc1S(C)(=O)=O` (racemic) [5ag, (±)-Ethyl 2-(5-methoxy-3-(2-(methylsulfonyl)nicotinoyl)-1,2,3,4,5,6-hexahydro-7H-2,6-methanoazocino[5,4-b]indol-7-yl)acetate], the IC50 was 1700 ± 700 nM.
For `CCCOC1CN(C(=O)c2cccnc2SC)C2Cc3c(n(CC(=O)OCC)c4ccccc34)C1C2` (racemic) [5d, (±)-Ethyl 2-(3-(2-(methylthio)nicotinoyl)-5-propoxy-1,2,3,4,5,6-hexahydro-7H-2,6-methanoazocino[5,4-b]indol-7-yl)acetate], the half-inhibitory concentration (IC50) came to 87 ± 15 nM.
In the case of `COC1CN(C(=O)c2cccnc2SC)C2Cc3c([nH]c4ccccc34)C1C2` (racemic) [5j, (±)-(5-methoxy-1,2,4,5,6,7-hexahydro-3H-2,6-methanoazocino[5,4-b]indol-3-yl)(2-(methylthio)pyridin-3-yl)methanone], the 50% inhibitory concentration (IC50) is over 30000 nM.
To `CCOC(=O)Cn1c2c(c3ccccc31)CC1CC2C(OC)CN1C(=O)c1cccnc1N1CCOCC1` (racemic) [5al, (±)-Ethyl 2-(5-methoxy-3-(2-morpholinonicotinoyl)-1,2,3,4,5,6-hexahydro-7H-2,6-methanoazocino[5,4-b]indol-7-yl)acetate] belongs 1400 ± 200 nM; to `CCOC(=O)n1c2c(c3ccccc31)CC1CC2C(OC)CN1C(=O)c1cccnc1SC` (racemic) [5p, (±)-ethyl 5-methoxy-3-(2-(methylthio)nicotinoyl)-3,4,5,6-tetrahydro-1H-2,6-methanoazocino[5,4-b]indole-7(2H)-carboxylate], 28000 ± 2000 nM.
As to `CCOC(=O)Cn1c2c(c3ccccc31)CC1CC2C(OC)CN1C(=O)c1c(C(F)(F)F)ccnc1SC` (racemic) [5x, (±)-Ethyl 2-(5-methoxy-3-(2-(methylthio)-4-(trifluoromethyl)nicotinoyl)-1,2,3,4,5,6-hexahydro-7H-2,6-methanoazocino[5,4-b]indol-7-yl)acetate], the IC50 amounted to 6700 ± 1600 nM.
As for `CCOC(=O)Cn1c2c(c3ccccc31)CC1CC2C(OC)CN1C(=O)c1cc(C(F)(F)F)cnc1SC` (racemic) [5y, (±)-Ethyl 2-(5-methoxy-3-(2-(methylthio)-5-(trifluoromethyl)nicotinoyl)-1,2,3,4,5,6-hexahydro-7H-2,6-methanoazocino[5,4-b]indol-7-yl)acetate], the concentration for half-maximal inhibition (IC50) stood at 14000 ± 4000 nM.
As to `CCOC(=O)Cn1c2c(c3ccccc31)CC1CC2C(OC)CN1C(=O)c1cccs1` (racemic) [5aq, (±)-Ethyl 2-(5-methoxy-3-(thiophene-2-carbonyl)-1,2,3,4,5,6-hexahydro-7H-2,6-methanoazocino[5,4-b]indol-7-yl)acetate], the half-inhibitory concentration (IC50) is 3000 ± 400 nM.
With `CNC(=O)Cn1c2c(c3ccccc31)CC1CC2C(OC)CN1C(=O)Nc1cccc(C(F)(F)F)c1` (centres unmarked) [5az], the half-maximal inhibitory concentration (IC50) is over 30000 nM.
For `CCOC(=O)Cn1c2c(c3cc(OC)ccc31)CC1CC2C(OC)CN1C(=O)c1cccnc1SC` (racemic) [5aa, (±)-Ethyl 2-(5,10-dimethoxy-3-(2-(methylthio)nicotinoyl)-1,2,3,4,5,6-hexahydro-7H-2,6-methanoazocino[5,4-b]indol-7-yl)acetate], the IC50 amounted to 4220 ± 3460 nM.
Turning to `CNC(=O)Cn1c2c(c3ccccc31)CC1CC2C(OC)CN1C(=O)c1cnccn1` (centres unmarked) [5av], the half-maximal inhibitory concentration (IC50) was over 30000 nM.
For `COC1CN(C(=O)c2cnccn2)C2Cc3c(n(CC(N)=O)c4ccccc34)C1C2` (centres unmarked) [5ax], the IC50 was over 30000 nM.
As to `CCOC(=O)Cn1c2c(c3ccccc31)CC1CC2C(OC)CN1C(=O)c1cccnc1SC` (racemic) [(±)-Glupin], the IC50 amounted to 55 ± 17 nM.
Consider `COC(=O)Cn1c2c(c3ccccc31)CC1CC2C(OC)CN1C(=O)c1cccnc1SC` (racemic) [5ad, (±)-methyl 2-(5-methoxy-3-(2-(methylthio)nicotinoyl)-3,4,5,6-tetrahydro-1H-2,6-methanoazocino[5,4-b]indol-7(2H)-yl)acetate], for which the IC50 stood at 89 ± 32 nM.
Consider `CCOC(=O)Cn1c2c(c3ccccc31)CC1CC2C(OC)CN1C(=O)c1cccnc1NC(=O)C(C)(C)C` (racemic) [5am, (±)-Ethyl 2-(5-methoxy-3-(2-pivalamidonicotinoyl)-1,2,3,4,5,6-hexahydro-7H-2,6-methanoazocino[5,4-b]indol-7-yl)acetate], for which the IC50 was over 30000 nM.
On to `CCCSc1ncccc1C(=O)N1CC(OC)C2CC1Cc1c2n(CC(=O)OCC)c2ccccc12` (racemic) [5ai, (±)-Ethyl 2-(5-methoxy-3-(2-(propylthio)nicotinoyl)-1,2,3,4,5,6-hexahydro-7H-2,6-methanoazocino[5,4-b]indol-7-yl)acetate], for which the IC50 was 190 ± 120 nM.
`CCOC(=O)Cn1c2c(c3ccccc31)CC1CC2C(O)CN1C(=O)c1cccnc1SC` (racemic) [5c, (±)-Ethyl 2-(5-hydroxy-3-(2-(methylthio)nicotinoyl)-1,2,3,4,5,6-hexahydro-7H-2,6-methanoazocino[5,4-b]indol-7-yl)acetate]: the half-maximal inhibitory concentration (IC50) turned out to be 130 ± 50 nM.
